Where “and” joins values, the source holds several entries; their conditions need not be identical. Equal entries are not always repeated. Inconclusive results and toxic doses are left out.

These results are taken from PubChem BioAssay AID330 (DTP/NCI, 2004).

In the experiment the test system is P388 leukemia ip, CD2F1 mice, survival T/C. Kind of experiment: NCI In Vivo Anticancer Drug Screen. Data for tumor model P388 Leukemia (intraperitoneal) in CD2F1 (CDF1) mice. The settings on record: endpoint: median survival time, higher = longer survival. In outline:
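Mice carrying the transplanted tumor received test compound or vehicle. Survival was recorded in each group, and the value is the treated-group measurement divided by that of the vehicle-treated control group.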

[1] abbreviates: dose: 50.0 mg/kg/injection, schedule: Q01DX009 (ip), vehicle: Klucel (hydroxypropylcellulose) (HPC).
Setting [2] is: dose: 100.0 mg/kg/injection, schedule: Q01DX009 (ip), vehicle: Klucel (hydroxypropylcellulose) (HPC).
Where [3] appears, read: dose: 200.0 mg/kg/injection, schedule: Q01DX009 (ip), vehicle: Klucel (hydroxypropylcellulose) (HPC).
The mark [4] stands for this setting: dose: 60.0 mg/kg/injection, schedule: Q01DX005 (ip), vehicle: saline with Tween-80.
Setting [5] is: dose: 120.0 mg/kg/injection, schedule: Q01DX005 (ip), vehicle: saline with Tween-80.
[6] abbreviates: dose: 240.0 mg/kg/injection, schedule: Q01DX005 (ip), vehicle: saline with Tween-80.
Where [7] appears, read: dose: 100.0 mg/kg/injection, schedule: Q04DX002 (ip), vehicle: saline with Tween-80.
Where [8] appears, read: dose: 15.0 mg/kg/injection, schedule: Q01DX005 (ip), vehicle: saline with Tween-80.

Turning to `O=C1c2ccccc2C(=O)N1SN1C(=O)c2ccccc2C1=O`, the T/C under setting [1] was 110 % of control; the T/C under setting [2] is 109 % of control; the T/C under setting [3] was 102 % of control; the T/C (dose: 400.0 mg/kg/injection, schedule: Q01DX009 (ip), vehicle: Klucel (hydroxypropylcellulose) (HPC)) was 109 % of control.

For the compound `OCC(COCCCCCCCCCCCCCC1C=CCC1)OCCCCCCCCCCCCCC1C=CCC1` (stereo not drawn), the T/C is, setting by setting: (dose: 100.0 mg/kg/injection, schedule: Q04DX003 (ip), vehicle: saline) 96 % of control; (dose: 200.0 mg/kg/injection, schedule: Q04DX003 (ip), vehicle: saline) 89 % of control; (dose: 400.0 mg/kg/injection, schedule: Q04DX003 (ip), vehicle: saline) 93 % of control.

With `Cc1ccc(N=Nc2c(-c3ccccc3)nn(C(N)=S)c2C)cc1`, the T/C was 92 % of control (dose: 100.0 mg/kg/injection, schedule: Q01DX001 (ip), vehicle: saline with Tween-80); 97 % of control (dose: 200.0 mg/kg/injection, schedule: Q01DX001 (ip), vehicle: saline with Tween-80); 103 % of control (dose: 400.0 mg/kg/injection, schedule: Q01DX001 (ip), vehicle: saline with Tween-80).

With `NNC(=O)c1ccccc1N`, the T/C (dose: 25.0 mg/kg/injection, schedule: Q01DX009 (ip), vehicle: water) is 96 % of control and the T/C (dose: 50.0 mg/kg/injection, schedule: Q01DX009 (ip), vehicle: water) was 96 % of control.

`CC1=CCC2C(=O)N(c3cc(C)on3)C(=O)C2C1` (stereo not drawn): the T/C is, setting by setting: under setting [4], 97 % of control; under setting [5], 100 % of control; under setting [6], 90 % of control.

Regarding `CCC1=CC(C(O)CC(C)C)C(C)(Cc2ccc(CC)cn2)NC1c1ccccc1` (stereo not drawn), the T/C under setting [7] was 96 % of control.

On to `CCC(=O)NC(Cc1cccc(F)c1)C(=O)O` (stereo not drawn), for which the T/C is, setting by setting: (dose: 6.25 mg/kg/injection, schedule: Q01DX009 (ip), vehicle: saline) 112 % of control; (dose: 12.5 mg/kg/injection, schedule: Q01DX009 (ip), vehicle: saline) 102 % of control.

Consider `CCOC(=O)c1c(C#N)c2cnn(-c3ccccc3)c2n2cccc12`, for which the T/C reads like this: under setting [8], 98 % of control; (dose: 30.0 mg/kg/injection, schedule: Q01DX005 (ip), vehicle: saline with Tween-80) 96 % of control; under setting [4], 86 % of control and 91 % of control.

Take `N#Cc1cnc2n(c1=N)CCCCC2`: the T/C is 102 % of control (dose: 25.0 mg/kg/injection, schedule: Q04DX003 (ip), vehicle: Klucel (hydroxypropylcellulose) (HPC)); 94 % of control (dose: 50.0 mg/kg/injection, schedule: Q04DX003 (ip), vehicle: Klucel (hydroxypropylcellulose) (HPC)); 102 % of control (dose: 100.0 mg/kg/injection, schedule: Q04DX003 (ip), vehicle: Klucel (hydroxypropylcellulose) (HPC)).

On to `COc1cc(C2c3cc4c(cc3CCN2C(=O)c2ccccc2)OCO4)cc(OC)c1OC` (stereo not drawn), for which the T/C is, setting by setting: (dose: 50.0 mg/kg/injection, schedule: Q01DX005 (ip), vehicle: Klucel (hydroxypropylcellulose) (HPC)) 93 % of control; (dose: 100.0 mg/kg/injection, schedule: Q01DX005 (ip), vehicle: Klucel (hydroxypropylcellulose) (HPC)) 91 % of control; (dose: 200.0 mg/kg/injection, schedule: Q01DX005 (ip), vehicle: Klucel (hydroxypropylcellulose) (HPC)) 93 % of control.

For `O=C1C(CCl)(CCl)CCC12CN=C(Cl)C2` (stereo not drawn), the T/C is, setting by setting: (dose: 50.0 mg/kg/injection, schedule: Q01DX005 (ip), vehicle: saline with Tween-80) 100 % of control; (dose: 100.0 mg/kg/injection, schedule: Q01DX005 (ip), vehicle: saline with Tween-80) 100 % of control; (dose: 200.0 mg/kg/injection, schedule: Q01DX005 (ip), vehicle: saline with Tween-80) 106 % of control.

As for `C(=NCc1ccccc1)c1ccccc1-c1ccccc1C=NCc1ccccc1`, the T/C was 92 % of control (dose: 12.5 mg/kg/injection, schedule: Q01DX009 (ip), vehicle: Klucel (hydroxypropylcellulose) (HPC)); 86 % of control under setting [1]; 100 % of control under setting [2].

As for `O=S(=O)(O)C1=CC(=N/Br)/C=CC/1=N\Br`, the T/C runs as follows: (dose: 50.0 mg/kg/injection, schedule: Q01DX005 (ip), vehicle: saline) 118 % of control and 119 % of control; (dose: 100.0 mg/kg/injection, schedule: Q01DX005 (ip), vehicle: saline) 115 % of control and 121 % of control; (dose: 200.0 mg/kg/injection, schedule: Q01DX005 (ip), vehicle: saline) 118 % of control and 121 % of control.

In the case of `CN(C)c1ccc2c(c1)c1cc(N(C)C)ccc1n2Cc1ccccc1`, the T/C is, setting by setting: under setting [4], 102 % of control; under setting [5], 94 % of control; under setting [6], 98 % of control.

In the case of `Cc1ccc(S(C)(=N)=O)c(N)c1` (stereo not drawn), the T/C (dose: 50.0 mg/kg/injection, schedule: Q01DX005 (ip), vehicle: acetone) is 99 % of control; the T/C (dose: 100.0 mg/kg/injection, schedule: Q01DX005 (ip), vehicle: acetone) is 99 % of control; the T/C (dose: 200.0 mg/kg/injection, schedule: Q01DX005 (ip), vehicle: acetone) is 100 % of control.

On to `O=C(O)/C=C\C(=O)O.OO.[O]=[V]`, for which the T/C is, setting by setting: (dose: 3.75 mg/kg/injection, schedule: Q01DX005 (ip), vehicle: saline with Tween-80) 100 % of control; under setting [8], 109 % of control.

In the case of `O=[N+]([O-])c1ccc(/C=C/C=C/c2ccc(S(=O)(=O)F)cc2)c(Cl)c1`, the T/C reads like this: under setting [1], 93 % of control; under setting [2], 93 % of control; under setting [3], 97 % of control.

On to `CCC(CC)C1NC(C(CC)CC)N2C(C(CC)CC)N12` (stereo not drawn), for which the T/C (dose: 50.0 mg/kg/injection, schedule: Q01DX001 (ip), vehicle: Klucel (hydroxypropylcellulose) (HPC)) was 103 % of control; the T/C (dose: 100.0 mg/kg/injection, schedule: Q01DX001 (ip), vehicle: Klucel (hydroxypropylcellulose) (HPC)) is 104 % of control; the T/C (dose: 200.0 mg/kg/injection, schedule: Q01DX001 (ip), vehicle: Klucel (hydroxypropylcellulose) (HPC)) was 101 % of control.

For `CC(C)C1=CC23CCC4C(C)(C(=O)O)CCCC4(C)C2CC1OO3` (stereo not drawn), the T/C by setting is: (dose: 100.0 mg/kg/injection, schedule: Q01DX009 (ip), vehicle: saline sonified) 95 % of control; (dose: 200.0 mg/kg/injection, schedule: Q01DX009 (ip), vehicle: saline sonified) 100 % of control; (dose: 400.0 mg/kg/injection, schedule: Q01DX009 (ip), vehicle: saline sonified) 100 % of control.

For the compound `OC(C(=S)N1CCOCC1)(c1ccccc1)c1ccccc1`, the T/C was 105 % of control under setting [1], 103 % of control under setting [2] and 98 % of control under setting [3].

Turning to `C=CCn1c(=O)n(CC=C)c(=O)n(CCOC(=O)COc2ccc(Cl)cc2Cl)c1=O`, the T/C runs as follows: (dose: 50.0 mg/kg/injection, schedule: Q01DX009 (ip), vehicle: saline) 108 % of control; (dose: 100.0 mg/kg/injection, schedule: Q01DX009 (ip), vehicle: saline) 112 % of control; (dose: 200.0 mg/kg/injection, schedule: Q01DX009 (ip), vehicle: saline) 94 % of control.

Regarding `CC(C)=Nc1c(C(N)=O)c(-c2ccccc2)c(-c2ccccc2)n1-c1ccccc1`, the T/C is 107 % of control (dose: 50.0 mg/kg/injection, schedule: Q01DX009 (ip), vehicle: saline with Tween-80); 107 % of control (dose: 100.0 mg/kg/injection, schedule: Q01DX009 (ip), vehicle: saline with Tween-80); 98 % of control (dose: 200.0 mg/kg/injection, schedule: Q01DX009 (ip), vehicle: saline with Tween-80).

With `C1CC[C@@]2([C@]34CCCC[C@H]3O4)O[C@H]2C1`, the T/C by setting is: (dose: 60.0 mg/kg/injection, schedule: Q01DX005 (ip), vehicle: Klucel (hydroxypropylcellulose) (HPC)) 99 % of control; (dose: 120.0 mg/kg/injection, schedule: Q01DX005 (ip), vehicle: Klucel (hydroxypropylcellulose) (HPC)) 98 % of control; (dose: 240.0 mg/kg/injection, schedule: Q01DX005 (ip), vehicle: Klucel (hydroxypropylcellulose) (HPC)) 95 % of control and 96 % of control.

In the case of `OCC(O)C1OC(c2ccccc2)OC2COC(c3ccccc3)OC21` (stereo not drawn), the T/C was 97 % of control under setting [7]; 86 % of control (dose: 200.0 mg/kg/injection, schedule: Q04DX002 (ip), vehicle: saline with Tween-80); 89 % of control (dose: 400.0 mg/kg/injection, schedule: Q04DX002 (ip), vehicle: saline with Tween-80).
